Assays:
Design in all cases: key: 0: normal development; 1: Less damaged; 2: Slightly damaged; 3: Moderately damaged; 4: Severely damaged; 5: All killed
[1] = system: Large crabgrass; experiment: Foliar spread test for upland field; assay type: in vivo, Digitaria adscendens; details: foliar spray 500 ppm, 3 weeks, rank vs non-treated
How it was run: (§1)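 Two-week-old glasshouse seedlings on volcanic ash soil were treated by foliar spray at 500 ppm, with 0.5% surfactant in the diluent. Effects were graded visually after three weeks, from 0 for no injury to 5 for complete kill.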

[2] = system: livid amaranth; experiment: Foliar spread test for upland field; assay type: in vivo, Amaranthus lividus; details: foliar spray 500 ppm, 3 weeks, rank vs non-treated
How it was run: as §1

[3] = system: morning glory; experiment: Foliar spread test for upland field; assay type: in vivo, Ipomoea spps.; details: foliar spray 500 ppm, 3 weeks, rank vs non-treated
How it was run: as §1

[4] = system: barnyardgrass; experiment: Foliar spread test for upland field; assay type: in vivo, Echinochloa crusgalli; details: foliar spray 500 ppm, 3 weeks, rank vs non-treated
Source text: (0: normal development, 1: Less damaged, 2: Slightly damaged, 3: Moderately damaged, 4: Severely damaged, 5: All killed).
Wagner pots, each having an area of 1/5000 are, were packed with volcanic ash soil and then each seed of corn, soybean, cotton, wheat, solgum, sugar beat, Large crabgrass, barnyardgrass, green foxtail, blackgrass, annual bluegrass, common lambsquartes, livid amaranth, velvetleaf and morning glory was planted, covered with soil and grown in a glass house at an average temperature of […] for about 2 weeks.
Each wettable powder of the desired compounds (I) shown in Table 1 prepared in accordance with Example 2 was diluted to 500 ppm with water containing a surfactant (0.5%) and then uniformly sprayed on the above respective plants.
After these plants were controlled in a glass house at an average temperature of 25° C. for 3 weeks, the herbicidal effects thereof were investigated.
The herbicidal effects were evaluated according to the evaluation method described in the above (1).

[5] = system: livid amaranth; experiment: Soil treatment test for upland field; assay type: in vivo, Amaranthus lividus; details: 500 g/ha, glass house 25° C., 3 weeks
How it was run: (§2)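 Damage rated on a 0–5 scale (0 normal development, 5 all killed) after 3 weeks in a glasshouse at about 25 °C. Compounds applied as a water-diluted wettable powder (0.05% surfactant) sprayed at 500 g/ha onto soil surface over freshly sown seeds in alluvial Ube soil.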

[6] = system: barnyardgrass; experiment: Soil treatment test for upland field; assay type: in vivo, Echinochloa crusgalli; details: 500 g/ha, glass house 25° C., 3 weeks
How it was run: as §2

[7] = system: common lambsquartes; experiment: Soil treatment test for upland field; assay type: in vivo, Chenopodium album; details: 500 g/ha, glass house 25° C., 3 weeks
How it was run: as §2

[8] = system: sugar beat; experiment: Foliar spread test for upland field; assay type: in vivo; details: foliar spray 500 ppm, 3 weeks, rank vs non-treated
How it was run: (§3)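 Crop seeds sown in volcanic ash soil in Wagner pots were raised about 2 weeks in a glasshouse, then sprayed with wettable-powder formulations diluted to 500 ppm in water with 0.5% surfactant. After 3 weeks at an average 25° C., injury was scored 0 (normal) to 5 (all killed).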

[9] = system: corn; experiment: Foliar spread test for upland field; assay type: in vivo; details: foliar spray 500 ppm, 3 weeks, rank vs non-treated
How it was run: as §3

[10] = system: cotton; experiment: Foliar spread test for upland field; assay type: in vivo; details: foliar spray 500 ppm, 3 weeks, rank vs non-treated
How it was run: as §3

[11] = system: wheat; experiment: Foliar spread test for upland field; assay type: in vivo; details: foliar spray 500 ppm, 3 weeks, rank vs non-treated
How it was run: as §3

[12] = system: soybean; experiment: Foliar spread test for upland field; assay type: in vivo; details: foliar spray 500 ppm, 3 weeks, rank vs non-treated
How it was run: as §3

[13] = system: solgum; experiment: Foliar spread test for upland field; assay type: in vivo; details: foliar spray 500 ppm, 3 weeks, rank vs non-treated
How it was run: as §3

[14] = system: common lambsquartes; experiment: Foliar spread test for upland field; assay type: in vivo, Chenopodium album; details: foliar spray 500 ppm, 3 weeks, rank vs non-treated
How it was run: as §1

[15] = system: annual bluegrass; experiment: Foliar spread test for upland field; assay type: in vivo, Poa annua; details: foliar spray 500 ppm, 3 weeks, rank vs non-treated
How it was run: as §1

[16] = system: annual bluegrass; experiment: Soil treatment test for upland field; assay type: in vivo, Poa annua; details: 500 g/ha, glass house 25° C., 3 weeks
How it was run: as §2

[17] = system: velvetleaf; experiment: Soil treatment test for upland field; assay type: in vivo, Abutilon theophrasti; details: 500 g/ha, glass house 25° C., 3 weeks
How it was run: as §2

[18] = system: blackgrass; experiment: Foliar spread test for upland field; assay type: in vivo, Alopecurus aegualis; details: foliar spray 500 ppm, 3 weeks, rank vs non-treated
How it was run: as §1

[19] = system: velvetleaf; experiment: Foliar spread test for upland field; assay type: in vivo, Abutilon theophrasti; details: foliar spray 500 ppm, 3 weeks, rank vs non-treated
How it was run: as §1

[20] = system: green foxtail; experiment: Foliar spread test for upland field; assay type: in vivo, Setaria viridis; details: foliar spray 500 ppm, 3 weeks, rank vs non-treated
How it was run: as §1

[21] = system: sugar beat; experiment: Soil treatment test for upland field; assay type: in vivo; details: 500 g/ha, glass house 25° C., 3 weeks
How it was run: as §2

[22] = system: corn; experiment: Soil treatment test for upland field; assay type: in vivo; details: 500 g/ha, glass house 25° C., 3 weeks
How it was run: as §2

[23] = system: cotton; experiment: Soil treatment test for upland field; assay type: in vivo; details: 500 g/ha, glass house 25° C., 3 weeks
How it was run: as §2

[24] = system: wheat; experiment: Soil treatment test for upland field; assay type: in vivo; details: 500 g/ha, glass house 25° C., 3 weeks
How it was run: as §2

[25] = system: soybean; experiment: Soil treatment test for upland field; assay type: in vivo; details: 500 g/ha, glass house 25° C., 3 weeks
How it was run: as §2

[26] = system: solgum; experiment: Soil treatment test for upland field; assay type: in vivo; details: 500 g/ha, glass house 25° C., 3 weeks
How it was run: as §2

[27] = system: Large crabgrass; experiment: Soil treatment test for upland field; assay type: in vivo, Digitaria adscendens; details: 500 g/ha, glass house 25° C., 3 weeks
How it was run: as §2

[28] = system: green foxtail; experiment: Soil treatment test for upland field; assay type: in vivo, Setaria viridis; details: 500 g/ha, glass house 25° C., 3 weeks
How it was run: as §2

[29] = system: blackgrass; experiment: Soil treatment test for upland field; assay type: in vivo, Alopecurus aegualis; details: 500 g/ha, glass house 25° C., 3 weeks
How it was run: as §2

SMILES | Effects Large crabgrass [1] | Effects Livid amaranth [2] | Effects Morning glory [3] | Effects Barnyardgrass [4] | Effects Livid amaranth [5] | Effects Barnyardgrass [6] | Effects Common lambsquarters [7] | Effects Sugar beat [8] | Effects Corn [9] | Effects Cotton [10] | Effects Wheat [11] | Effects Soybean [12] | Effects Solgum [13] | Effects Common lambsquarters [14] | Effects Annual bluegrass [15] | Effects Annual bluegrass [16] | Effects Velvetleaf [17] | Effects Blackgrass [18] | Effects Velvetleaf [19] | Effects Green foxtail [20] | other results
CCC(Oc1ccc(F)c(C(F)(F)F)c1)c1nc2ccc(C(F)(F)F)cc2o1 (stereo not drawn) [Compound 93] | 3 | 4 | 3 | 2 | 5 | 4 | 3 | 4 | 2 | 3 | 2 | 4 | 1 | 4 | 1 | 5 | 2 | 1 | 2 | 3 | Effects Sugar beat [21]: 5; Effects Corn [22]: 1; Effects Cotton [23]: 1; Effects Wheat [24]: 0; Effects Soybean [25]: 2; Effects Solgum [26]: 1; Effects Large crabgrass [27]: 5; Effects Green foxtail [28]: 5; Effects Blackgrass [29]: 3
CCCC(Oc1ccc(F)c(C(F)(F)F)c1)c1nc2ccc(C(F)(F)F)cc2o1 (stereo not drawn) [Compound 101] | 2 | 4 | 3 | 1 | 5 | 3 | 4 | 2 | 1 | 2 | 1 | 3 | 1 | 4 | 1 | 5 | 2 | 1 | 3 | 2 | Effects Sugar beat [21]: 2; Effects Corn [22]: 0; Effects Cotton [23]: 0; Effects Wheat [24]: 0; Effects Soybean [25]: 0; Effects Solgum [26]: 1; Effects Large crabgrass [27]: 5; Effects Green foxtail [28]: 5; Effects Blackgrass [29]: 3
CCC(Oc1cccc(OC(F)(F)F)c1)c1nc2cc(Cl)ccc2o1 (stereo not drawn) [Compound 447] | 3 | 5 | 5 | 1 | 5 | 4 | 3 | 5 | 3 | 4 | 2 | 5 | 3 | 5 | 2 | 5 | 2 | 2 | 2 | 2 | Effects Sugar beat [21]: 5; Effects Corn [22]: 2; Effects Cotton [23]: 0; Effects Wheat [24]: 1; Effects Soybean [25]: 0; Effects Solgum [26]: 1; Effects Large crabgrass [27]: 5; Effects Green foxtail [28]: 5; Effects Blackgrass [29]: 5

— patent US6706664B1, “Benzoxazole compounds, process for the preparation thereof and herbicides” (UBE Industries, Ltd., priority 1999, dated 2004)
